# Measurements as given in US7635720B2, “Prostaglandin analog compositions to treat epithelial-related conditions” (Meta Cosmetics, LLC, priority 2007, dated 2009).
# Several values for one entry are separate records, joined by “and”; a condition that tells them apart may be missing. Equal entries are not always repeated. Entries after “also recorded” stand apart in the source; their conditions may differ.
# Assays:
# [1] = test system: eyelashes; conditions: background statement; cited from earlier work
# [2] = Bovine cornea hydrolysis assay; assay type: in vitro ADME; conditions: for % Hydrolyzed after 12 hr (negative control): PBS pH 7.4 only, no cornea, 37° C.; for % Hydrolyzed after 12 hr, Avg: average of cornea samples 1-3; for % Hydrolyzed after 12 hr: one bovine cornea in 10 ml PBS pH 7.4, 37° C., 250 μg compound, individual cornea samples 1-3
# Description: A bovine cornea hydrolysis test system (K. M. Maxey, et al., “The Hydrolysis of Bimatoprost in Corneal Tissue Generates a Potential Prostanoid FP Receptor Agonist,” Survey of Ophthalmology, 47 (Suppl 1):S34-40 (2002)) has been used to determine whether four test compounds of the present invention, namely 16-phenoxy PGF2α cyclopropyl amide; 17-phenyl trinor PGF2α cyclopropyl amide; 16-phenoxy PGF2α cyclopropyl methyl amide; and 17-phenyl trinor PGF2α cyclopropyl methyl amide, react similarly to bimatoprost in this test system.
# Bovine corneas are excised within 1-2 hour of death. For each compound tested, one cornea (0.6 g) is placed into an 18 mm×150 mm glass test tube containing 10 ml of phosphate-buffered saline (“PBS”) at pH 7.4. The compound of interest (250 μg in about 120 μl ethanol) is added to each test tube containing a cornea and to a tube containing only 10 ml of PBS (no cornea), which served as a negative control. Test tubes are covered with parafilm and incubated at 37° C. with shaking.
# After the first time point, a 5 ml aliquot is removed from each test tube and transferred into another marked test tube. The remaining material continues to incubate at 37° C. until subsequent test time point(s) is/are reached. For each test tube, 1.0 ml of 5% KHSO4 is added to bring the pH down to about 3 and sufficient NaCl is added to saturate the solution; the solution then is extracted three times with 80% ethyl acetate-hexane. The solvent is evaporated under nitrogen, dissolved in 200 μl of 80% ethyl acetate-hexane, and the 200 μl sample then transferred to a 2 ml screw cap vial. Samples are stored at −20° C. until run on an HPLC column.
# After the second time point, the cornea is removed from each experimental test tube. For each test tube, 1.0 ml of 5% KHSO4 is added to bring the pH down to about 3 and sufficient NaCl added to saturate the solution; the solution then is extracted three times with 80% ethyl acetate-hexane. The solvent is evaporated under nitrogen, dissolved in 200 μl of 80% ethyl acetate-hexane, and the 200 μl sample then transferred to 2 ml screw cap vials. Samples are stored at −20° C. until they are run on an HPLC column.
# For HPLC, samples are run on a Beckman Ultrasphere ODS analytical C18 HPLC column (5μ, 4.6 mm×25 cm) at 1 ml/min using either 60:40:0.1 or 70:30:0.1 methanol:water:acetic acid as solvent. Absorbance is monitored at 210 nm.
# [3] = test system: eyelashes; assay: Use for restoring eyelashes: transparent gel applied nightly at the skin-eyelash border, volunteers; assay type: in vivo, human
# Description: In one embodiment, the composition of the present invention is a transparent gel formulated according to Table 2. The formulation comprises water, at least one prostaglandin analog according to the present invention (concentration about 0.001% to about 0.05% w/w of the composition); a thickener, optionally a hair stimulating agent; caffeine, and at least one penetrating agent and the pH adjusted to 7.2. The gel is applied as a fine line at the skin-eyelash border every night on clean dry eyes. The gel is aqueous enough to spread to the hair follicles but thick enough not to drip.
# In another embodiment, the composition is a transparent gel formulated to comprise at least one of 16-phenoxy PGF2α cyclopropyl amide; 17-phenyl trinor PGF2α cyclopropyl amide; 16-phenoxy PGF2α cyclopropyl methyl amide; or 17-phenyl trinor PGF2α cyclopropyl methyl amide (concentration about 0.001% to about 0.05% w/w of the composition) plus the following ingredients (Table 3):
# (§1) Test formulations contained either 0.025% or 0.05% 16-phenoxy PGF2α cyclopropyl amide. The formulation containing 0.025% 16-phenoxy PGF2α cyclopropyl amide was used on the left side, and the formulation containing 0.05% 16-phenoxy PGF2α cyclopropyl amide was used on the right side. Test formulations were given randomly to volunteers without consideration of coloration of eyelashes, race, ethnicity or sex.
# [4] = test system: eyebrows; assay: Use for restoring eyebrows: transparent gel applied nightly at the browbone, volunteers; assay type: in vivo, human
# Description: A composition prepared according to the present invention is formulated as a transparent gel as described in the two described embodiments of Example 2. The formulation comprises water, at least one prostaglandin analog according to the present invention (concentration about 0.001% to about 0.05% w/w of the composition); a thickener, optionally a hair stimulating agent; caffeine, and at least one penetrating agent and the pH adjusted to 7.2. The gel is applied by brush as a line at the browbone every night on clean, oil-free brows in the absence of makeup. The gel is sufficiently aqueous to spread to the hair follicles but thick enough not to drip.
# as §1
# [5] = 0.025% formulation left, 0.05% right
# [6] = gel 0.025% / 0.05% nightly, single subject
structure (smiles),measurement,setting,value
"CC(C)OC(=O)CCC/C=C\C[C@@H]1[C@@H](/C=C/[C@@H](O)COc2cccc(C(F)(F)F)c2)[C@H](O)C[C@@H]1O [Travaprost, isopropyl (Z)-7-[(1R,2R,3R,5S)-3,5-dihydroxy-2-[(1E,3R)-3-hydroxy-4-[(α,α,α-trifluoro-m-tolyl)oxy]-1-butenyl]cyclopentyl]-5-heptenoate]",effect on eyelash growth (in words),[1],"does not work well for eyelash growth, taking longer than other like products"
CC(C)OC(=O)CCC/C=C\C[C@@H]1[C@@H](CC[C@@H](O)CCc2ccccc2)[C@H](O)C[C@@H]1O [Latanoprost],effect on eyelash growth (in words),[1],works poorly on eyelashes
"CCNC(=O)CCC/C=C\C[C@@H]1[C@@H](/C=C/[C@@H](O)CCc2ccccc2)[C@H](O)C[C@@H]1O [Bimatoprost, cyclopentane N-ethyl heptenamide-5-cis-2-(3α-hydroxy-5-phenyl-1-trans-pentenyl)-3,4-dihydroxy, [1α, 2β, 3α, 5α]]",effect on eyelash growth (in words),[1],effective to increase the growth of eyelashes
same,incidence of hyperemia,[1],highest incidence of hyperemia
same,negative side effects,[1],redness and discoloration along the periocular skin; eye irritation; and foreign body sensation
O=C(CCC/C=C\C[C@@H]1[C@@H](/C=C/[C@@H](O)CCc2ccccc2)[C@H](O)C[C@@H]1O)NCC1CC1 [17 phenyl trinor PGF2α cyclopropyl methyl amide],% Hydrolyzed after 12 hr (negative control),[2],0%
same,"% Hydrolyzed after 12 hr, Avg",[2],0.91%
same,% Hydrolyzed after 12 hr,[2],0.83% and 0.8% and 1.1%
"O=C(CCC/C=C\C[C@@H]1[C@@H](/C=C/[C@@H](O)COc2ccccc2)[C@H](O)C[C@@H]1O)NC1CC1 [16-phenoxy PGF2α cyclopropyl amide, 16-phenoxy tetranor PGF2α cyclopropyl amide]","left side (0.025%) versus right side (0.05%), eyelashes",[3]; [5],no significant difference; also recorded: Right side was faster to grow; also recorded: Subject thought right side was better; also recorded: Subject thought left side was better
same,increase in eyelash length,"[3]; gel 0.025% (left) / 0.05% (right) nightly, single subject, final result or time not given",about 55% and approximately 80% and approximately 45% and 50% and 45% and approximately 60% and 100% and 45-50%
same,eyelash appearance (in words),[3]; [6],"darker, fuller and showed an upward curving angle of growth; also recorded: much thicker, fuller, longer and curvier than before use; also recorded: Lashes grew so much that by week 4 the test was discontinued because eyelashes were too long; also recorded: darker, fuller, and longer; also recorded: thicker and darker and curled upwards; also recorded: much thicker after 2 weeks; also recorded: much darker, thicker; also recorded: darker, and curved upwards; also recorded: longer, thicker and darker; also recorded: bushy, very thick, dark; also recorded: eyelashes had grown to the point of clear visibility below lids; also recorded: darker, thicker and lashes curled up; also recorded: darker and more upturned; also recorded: Noticeable improvement after 4 weeks even without mascara"
same,time by which increase in eyelash length / growth was obvious,[3]; [6],about 3 weeks and ≤ 3 weeks and ≤ 2 weeks
same,time to some thickening of eyelashes,[3]; [6],≤ 10 days
same,increase in eyelash length,"[3]; gel 0.025% / 0.05% nightly, single subject, 3 weeks",40% and 30%
same,increase in eyelash length,"[3]; gel 0.025% / 0.05% nightly, single subject, 4 weeks",about 50% and 50% and approximately 60%
same,increase in eyelash length,"[3]; gel 0.025% / 0.05% nightly, single subject, 5 weeks",Approximately 60%; also recorded: about 100%; also recorded: approximately 45%
same,increase in eyelash length,"[3]; gel 0.025% / 0.05% nightly, single subject, 6 weeks",100% and ~45% and 50%
same,increase in eyelash length,"[3]; gel 0.025% / 0.05% nightly, single subject, after two months",approximately 55%
same,increase in numbers of eyelashes,"[3]; gel 0.025% / 0.05% nightly, single subject, final or peak result",60% and 30% and 50%
same,increase in eyelash thickness,"[3]; gel 0.025% / 0.05% nightly, single subject, final result",approximately doubled and approximately 60% and 100% and ~100%
same,tolerability of the product,[3]; subjects with dry eye,tolerated the product well
same,% Hydrolyzed after 12 hr (negative control),[2],0%
same,"% Hydrolyzed after 12 hr, Avg",[2],1.78%
same,% Hydrolyzed after 12 hr,[2],2.0% and 1.89% and 1.44%
same,"left side (0.025%) versus right side (0.05%), eyebrows",[4]; [5],no significant difference
same,eyebrow hair result (in words),"[4]; gel 0.025% (left) / 0.05% (right) nightly, single subject",noticeable increase in number of hairs and color after 2 weeks; also recorded: Hairs started to fill in
O=C(CCC/C=C\C[C@@H]1[C@@H](/C=C/[C@@H](O)COc2ccccc2)[C@H](O)C[C@@H]1O)NCC1CC1 [16-phenoxy tetranor PGF2α cyclopropyl methyl amide],% Hydrolyzed after 12 hr (negative control),[2],0%
same,"% Hydrolyzed after 12 hr, Avg",[2],1.22%
same,% Hydrolyzed after 12 hr,[2],1.28% and 1.18% and 1.2%
"O=C(CCC/C=C\C[C@@H]1[C@@H](/C=C/[C@@H](O)CCc2ccccc2)[C@H](O)C[C@@H]1O)NC1CC1 [17-phenyl trinor PGF2α cyclopropyl amide, 17 phenyl trinor PGF2α cyclopropylamide]",% Hydrolyzed after 12 hr (negative control),[2],0%
same,"% Hydrolyzed after 12 hr, Avg",[2],1.82%
same,% Hydrolyzed after 12 hr,[2],1.31% and 2.0% and 2.15%
